PubChem BioAssay AID2060890 (Molecular Pharmacology Branch, DTP, NCI, 2025)

System: LG0703-F948-PDC complex spheroid viability
Assay: Anticancer human tumor LG0703-F948-PDC patient-derived lung adenocarcinoma cell line growth inhibition [RAS]
Conditions: for IC50: curve of first compound; for viability, T/C: stronger effect = lower value
From the text: RAS pathway inhibitors in Combinations in Complex Spheroids
A high-throughput screen of multi-cell type tumor spheroids was designed to identify active combinations of RAS pathway inhibitors and targeted small molecules. Complex spheroids include a stromal component modeled by human endothelial cells (HUVEC) and fibroblasts modeled by human mesenchymal stem cells (MSCs). The concentration ranges selected for each drug and investigational agent were based upon clinically achievable concentrations if the clinical Cmax of the agent was known.
Compounds. The drugs and investigational agents: abemaciclib (NSC768073), cobimetinib (NSC768068), divarasib (GDC6063, NSC841802), docetaxel (NSC628503), GDC-1971 (RLY-1971, NSC841576), gemcitabine (NSC613327), inavolisib (NSC800729), ipatasertib (NSC767898), KB-0742 (NSC834161), MRTX-1133 (NSC836407), osimertinib (NSC779217), RMC-4630 (NSC839698), RMC-6236 (NSC851965), RMC-6291 (NSC852671), Ro-3306 (NSC812927), sapanisertib (NSC764658), SN-38 (NSC673596), staurosporine (NSC755774), SY5609 (NSC837396), and tovorafenib (DAY101, NSC766906), were obtained from the National Cancer Institute (NCI) Developmental Therapeutics Program Chemical Repository. The FDA-approved anticancer drug set is available from the NCI Developmental Therapeutics Program. […] The stock solutions were prepared in dimethyl sulfoxide (DMSO, Sigma-Aldrich, St. Louis, MO, cat. D2650) at 800-fold the tested concentration and stored at -70 degrees C prior to their use. All drugs and investigational agents were tested over a range starting from a high concentration at or near the clinical Cmax and decreasing in half-log increments. If the clinical Cmax for an agent had not been determined, the highest concentration tested was 10 microM.
Cell Culture. All cells were maintained in an incubator at 37 degrees C and 5% CO2 with 95% humidity. The PDC lines were cultured according to standard operating procedures established by the NCI PDMR. All PDCs were thawed and cultured in Matrigel-coated flasks prepared with a working solution of 1X Ham's F-12 nutrient mix, without supplementation (Invitrogen, Waltham, MA, cat. 11765054), 100 U/mL penicillin-streptomycin (Invitrogen, cat. 15140122), and 2.5% Matrigel (Corning Inc., Corning, NY, cat. 354248) for the first three passages. The 362531-283-R-J2-PDC and 782815-120-R-J1-PDC lines were cultured in 6C/Colon 1B media, which includes advanced DMEM/F-12 (Thermo Fisher Scientific, cat. 12634028), 10 mM HEPES (Thermo Fisher Scientific, cat. 15630080), 1X GlutaMAX supplement (Thermo Fisher Scientific, cat. 35050061), 0.1 mg/mL primocin (InvivoGen, San Diego, CA, cat. ant-pm-2), 10% defined fetal bovine serum, heat inactivated (HyClone Laboratories Inc., Logan, UT, cat. SH30070.03HI), 50% L-WRN conditioned media (ATCC, cat. CRL-3276), 1.25 mM N-Acetyl-L-cysteine (Sigma-Aldrich, cat. A9165), 10 mM nicotinamide (Sigma-Aldrich, cat. N0636), 1X B-27 supplement (Thermo Fisher Scientific, cat. 17504044), 1X N-2 supplement (Thermo Fisher Scientific, cat. 17502048), 50 ng/mL human EGF (Thermo Fisher Scientific, cat. PHG0311), and 10 microM Y-27632 dihydrochloride (Tocris Bioscience, cat. 1254). The K12877-001-R-J1-PDC line was cultured in 6I media, which includes all 6C/Colon 1B media plus 10 ng/mL human FGF-10 (PeproTech, cat. 100-26), 1 ng/mL human FGF-2 (PeproTech, cat. 100-18B), 1 µM prostaglandin E2 (Tocris Bioscience, cat. 2296), […] hydrocortisone (Sigma-Aldrich, cat. H4001), and […] bovine insulin (Sigma-Aldrich, cat. I6634). The K86415-001-R-J1-PDC line was cultured in 6D media, which includes all 6C/Colon 1B media components minus the L-WRN conditioned media. The 485176-168-R4-J1-PDC was cultured in PANC media, which includes all 6C/Colon 1B media plus 100 ng/mL human FGF-10 (PeproTech, cat. 100-26), 500 nM SB-431542 (Selleckchem, cat. S1067), and 10 nM gastrin (Tocris Bioscience, cat. 3006). […]
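Also: spheroids exposed to agents for 7 days.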
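For viability, T/C in this document: 100% = DMSO vehicle wells.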

Compound: CC(C)NCC(C(=O)N1CCN(c2ncnc3c2C(C)CC3O)CC1)c1ccc(Cl)cc1 (configuration not stated) + C#Cc1c(F)ccc2cc(O)cc(-c3ncc4c(N5CC6CCC(C5)N6)nc(OCC56CCCN5CC(F)C6)nc4c3F)c12
- IC50 (second compound 0.0316 µM): 601 nM
- IC50 (second compound 0.1 µM): 699 nM
- IC50 (second compound 0.316 µM): 238 nM
- IC50 (second compound 1 µM): 257 nM
- IC50 (second compound 3.16 µM): 59.4 nM
- IC50 (second compound 10 µM): < 31.6 nM
- viability, T/C (second compound 0.0316 µM, first compound 0.0316 µM): 90%
- viability, T/C (second compound 0.0316 µM, first compound 0.1 µM): 67.3%
- viability, T/C (second compound 0.0316 µM, first compound 0.316 µM): 59.7%
- viability, T/C (second compound 0.0316 µM, first compound 1 µM): 46.4%
- viability, T/C (second compound 0.0316 µM, first compound 3.16 µM): 29.8%
- viability, T/C (second compound 0.0316 µM, first compound 10 µM): 26.1%
- viability, T/C (second compound 0.1 µM, first compound 0.0316 µM): 86.1%
- viability, T/C (second compound 0.1 µM, first compound 0.1 µM): 68.2%
- viability, T/C (second compound 0.1 µM, first compound 0.316 µM): 64.5%
- viability, T/C (second compound 0.1 µM, first compound 1 µM): 40.5%
- viability, T/C (second compound 0.1 µM, first compound 3.16 µM): 37.5%
- viability, T/C (second compound 0.1 µM, first compound 10 µM): 22.9%
- viability, T/C (second compound 0.316 µM, first compound 0.0316 µM): 82.5%
- viability, T/C (second compound 0.316 µM, first compound 0.1 µM): 60%
- viability, T/C (second compound 0.316 µM, first compound 0.316 µM): 44.5%
- viability, T/C (second compound 0.316 µM, first compound 1 µM): 35%
- viability, T/C (second compound 0.316 µM, first compound 3.16 µM): 31.1%
- viability, T/C (second compound 0.316 µM, first compound 10 µM): 15.8%
- viability, T/C (second compound 1 µM, first compound 0.0316 µM): 68.6%
- viability, T/C (second compound 1 µM, first compound 0.1 µM): 63.6%
- viability, T/C (second compound 1 µM, first compound 0.316 µM): 47.5%
- viability, T/C (second compound 1 µM, first compound 1 µM): 25.6%
- viability, T/C (second compound 1 µM, first compound 3.16 µM): 20.4%
- viability, T/C (second compound 1 µM, first compound 10 µM): 10.2%
- viability, T/C (second compound 3.16 µM, first compound 0.0316 µM): 57.6%
- viability, T/C (second compound 3.16 µM, first compound 0.1 µM): 43.4%
- viability, T/C (second compound 3.16 µM, first compound 0.316 µM): 32.9%
- viability, T/C (second compound 3.16 µM, first compound 1 µM): 17.8%
- viability, T/C (second compound 3.16 µM, first compound 3.16 µM): 11.7%
- viability, T/C (second compound 3.16 µM, first compound 10 µM): 7.15%
- viability, T/C (second compound 10 µM, first compound 0.0316 µM): 34%
- viability, T/C (second compound 10 µM, first compound 0.1 µM): 33.9%
- viability, T/C (second compound 10 µM, first compound 0.316 µM): 17.9%
- viability, T/C (second compound 10 µM, first compound 1 µM): 8.97%
- viability, T/C (second compound 10 µM, first compound 3.16 µM): 3.2%
- viability, T/C (second compound 10 µM, first compound 10 µM): 0.42%
